Laboratory results published in US5300284A, “Glycosaminoglycanase inhibitor andethane diol composition for maintenance of hair growth” (priority 1991, dated 1994).

Assay: Flow-through skin penetration of 14C-labelled glucarolactone
Assay type: in vitro ADME, pig
Conditions: 20 hours
Source text: In order to simulate human skin penetration in vivo, full thickness pig skin was used in a flow-through skin penetration cell system. For this purpose, the technique described by Bronough R L, and Stuart R F in "Methods for in vitro percutaneous absorption studies IV: The flow-throughdiffusion cell", published in J. Pharm.
This system allows for the study of percutaneous absorption from topically applied substances in a controlled manner, i.e. at controlled temperature and with constant receptor fluid flow rate. The flow-through skin penetration cell has a surface area of skin of 0.38 cm^2 exposed to a formulation containing a test substance. At time zero, 25 μl of a formulation containing tracer amounts of ^14 C-labelled glucarolactone was applied to the skin and left for 20 hours. During this period of penetration, receptor fluid flowing underneath the dermal side of the skin was collected in fractions at 2 hour intervals. At time 20 hours, the skin was vigorously washed to remove all non-absorbed material, the remaining receptor fluid in the cell also being collected at this time.
Subsequently, the piece of skin was detached from the cell and keratatomed at a thickness of about 1.3 mm. This procedure will separate the lower section of the dermis from that containing the stratum corneum, viable epidermis, upper part of dermis and neck of hair follicle. To refine further the picture of distribution of radioactivity, the upper section was subsequently tape stripped 5 times using transparent adhesive tape to remove residual radioactive materials adhering to the outer surface of the skin. All these sections were digested and counted for radioactivity. Each penetration cell therefore yielded 4 results:
i) transdermal penetration, i.e. the amount retrieved in receptor fluid flowing on the dermal side of the skin;
ii) tape strips, i.e. amounts of radio active material adhering to the skin surface;
iii) upper section of skin, i.e. remainder of stratum corneum, neck of hair follicle, viable epidermis and upper part of dermis;
iv) lower section of skin, i.e. remainder of dermis containing the remaining part of hair follicles and dermal papillae.
The results obtained from categories ii), iii) and iv) above together constitute the amounts retrieved from within the skin, i.e. dermal penetration. The results may be expressed as percentage of dose applied, or as the actual amounts delivered.
The following formulation was used to determine penetration and delivery of glucarolactone in accordance with the Bronaugh flow-through skin penetration cell technique:
Scintillation counting was employed to determine the amount of the enzyme inhibitor, glucarolactone, which had penetrated the skin to a point where it would be available to inhibit glycosaminoglycanase in the immediate environment of the hair bulb.
The results obtained are shown in the following Table 1 in which the values given represent percentages of the glucarolactone dose applied topically which actually penetrates into and through the skin and is recovered at various levels. In addition, the actual amounts of penetrated glucarolactone is given. The results shown are the average and standard error of the mean of 33 determinations.

[1] = dermal (tapes + upper + lower section), 8% w/w glucarolactone formulation, mean ± SEM of 33 determinations
[2] = lower section of skin (hair follicles, dermal papillae), 8% w/w glucarolactone formulation, mean ± SEM of 33 determinations
[3] = tape strips (skin surface), 8% w/w glucarolactone formulation, mean ± SEM of 33 determinations
[4] = total (transdermal + dermal), 8% w/w glucarolactone formulation
[5] = transdermal (receptor fluid), 8% w/w glucarolactone, 10% ethane diol formulation, mean ± SEM of 33 determinations
[6] = upper section of skin, 8% w/w glucarolactone formulation, mean ± SEM of 33 determinations

Which results are given for O=C(O)[C@@H](O)[C@H]1OC(=O)[C@H](O)[C@H]1O [glucarolactone]?
Actual Amount GL Delivered, Dermal [1]: 72.87 ± 16.62 µg; Percentage of Applied Dose, Dermal [1]: 3.719 ± 0.848%; Actual Amount GL Delivered, lower section [2]: 56.63 ± 14.33 µg; Percentage of Applied Dose, lower section [2]: 2.890 ± 0.731%; Actual Amount GL Delivered, tapes [3]: 2.38 ± 0.39 µg; Percentage of Applied Dose, tapes [3]: 0.122 ± 0.020%; Actual Amount GL Delivered, Total [4]: 80.67 µg; Percentage of Applied Dose, Total [4]: 4.117%; Actual Amount GL Delivered, Transdermal [5]: 7.80 ± 2.47 µg; Percentage of Applied Dose, Transdermal [5]: 0.398 ± 0.126%; Actual Amount GL Delivered, upper section [6]: 13.86 ± 3.00 µg; Percentage of Applied Dose, upper section [6]: 0.707 ± 0.153%
